Some test systems named below: ACHN renal; SW-620 colon; OVCAR-5 ovarian; RPMI-8226 leukemia; EKVX NSCLC; NCI-H23 lung; MDA-MB-231 breast; CAKI-1 renal; UACC-257 melanoma; PC-3 prostate.
What all share (test): growth of human tumour cells (NCI), 48 h

Our source for the GI50 and TGI values is PubChem BioAssay (NCI).

Each structure is given as a SMILES string.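 48-hour exposure; five concentrations; linearly interpolated endpoints. GI50 marks 50% less growth. TGI marks complete inhibition of growth.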

On to `Cl.[O-]c1cccc2cccnc12.[O-]c1cccc2cccnc12.[O-]c1cccc2cccnc12.[O-]c1cccc2cccnc12.[Ti+4]`, for which the GI50 in the assay on ACHN renal is 2.62 µM; in the assay on SW-620 colon, 0.393 µM; with OVCAR-5 ovarian, 2.71 µM; in the assay on EKVX NSCLC, 0.916 µM; in the assay with NCI-H23 lung, 1.4 µM; with MDA-MB-231 breast it was 1.26 µM. The GI50 with CAKI-1 renal was 1.61 µM; in the assay with UACC-257 melanoma it was 0.712 µM. Further, the TGI in the assay with ACHN renal was greater than 100 µM; with SW-620 colon, greater than 100 µM; with OVCAR-5 ovarian it was 19.5 µM; in the assay on RPMI-8226 leukemia, 2.67 µM; in the assay with EKVX NSCLC, greater than 27.4 µM; with MDA-MB-231 breast, greater than 100 µM. Also, the figures for the TGI in the assay with CAKI-1 renal and in the assay with UACC-257 melanoma were greater than 100 µM and greater than 35.1 µM, respectively.
In the case of `C[C@H]1[C@H](C)CC[C@]2(C(=O)O)CCC3(COC(=O)/C=C/c4ccc(O)cc4)C(=CCC4[C@@]5(C)CC[C@H](O)C(C)(C)C5CC[C@]43C)[C@H]12` (some centres not stated), the TGI amounted to 13.1 µM in the assay on ACHN renal; 18 µM with SW-620 colon; 28.6 µM in the assay with OVCAR-5 ovarian; 49.8 µM with RPMI-8226 leukemia; 24.6 µM in the assay on EKVX NSCLC; 22.1 µM in the assay with CAKI-1 renal. The same molecule gave a TGI in the assay on UACC-257 melanoma of 31.5 µM.
On to `O=C(CC1(O)C(=O)Nc2c(Cl)cc(Cl)cc21)c1ccc([N+](=O)[O-])cc1` (configuration not stated), for which the TGI in the assay on ACHN renal is greater than 100 µM; in the assay with SW-620 colon, greater than 63 µM; in the assay with OVCAR-5 ovarian, greater than 100 µM; in the assay with RPMI-8226 leukemia, greater than 82.1 µM; with EKVX NSCLC it was greater than 61.9 µM; in the assay with NCI-H23 lung it was greater than 78.9 µM. Moreover, the TGI in the assay on CAKI-1 renal is greater than 100 µM; in the assay on UACC-257 melanoma it was greater than 54.3 µM.
On to `CCc1cc2c(Nc3ccccc3)c3c(nc2s1)CCCC3`, for which the TGI was greater than 100 µM in the assay on ACHN renal; greater than 100 µM in the assay with SW-620 colon; greater than 100 µM in the assay with OVCAR-5 ovarian; 87 µM in the assay on RPMI-8226 leukemia; greater than 100 µM with EKVX NSCLC; greater than 100 µM in the assay with UACC-257 melanoma.
Regarding `CC(/C=C1\CCC(CN(C)C)C1=O)c1cccc(Br)c1` (configuration not stated), the TGI in the assay with ACHN renal was found to be 18 µM; in the assay with SW-620 colon, 26.2 µM; with OVCAR-5 ovarian it was 43.8 µM; in the assay with RPMI-8226 leukemia it was 6.08 µM; with EKVX NSCLC, 42 µM; in the assay with NCI-H23 lung, 38 µM. Moreover, the TGI with CAKI-1 renal came to 21.1 µM; in the assay with UACC-257 melanoma, 31.6 µM.
`Cc1cc(=O)n2c(cc3cccccc32)n1`: the TGI with ACHN renal, with SW-620 colon, in the assay with OVCAR-5 ovarian, with RPMI-8226 leukemia, with EKVX NSCLC and in the assay on NCI-H23 lung was greater than 100 µM in each case. Besides, the TGI with CAKI-1 renal and in the assay with UACC-257 melanoma was greater than 100 µM throughout.
In the case of `COc1ccc(C(=O)Nc2ccn(CCOC(=O)c3ccc(OC)cc3)c(=O)n2)cc1`, the TGI in the assay on ACHN renal, in the assay with SW-620 colon, in the assay on OVCAR-5 ovarian, with RPMI-8226 leukemia, in the assay with EKVX NSCLC and in the assay on CAKI-1 renal was greater than 100 µM in each case. The same molecule displayed a TGI in the assay on UACC-257 melanoma greater than 100 µM.
For the molecule `Cc1nccc2c3ccc(OCc4cn(-c5ccc(Br)cc5)nn4)cc3n(CCCc3ccccc3)c12`, the GI50 in the assay with ACHN renal is 1.23 µM; in the assay on OVCAR-5 ovarian it was 2.15 µM; in the assay with PC-3 prostate, 3.42 µM; in the assay on EKVX NSCLC it was greater than 100 µM; with UACC-257 melanoma, 2.06 µM. The TGI with ACHN renal was 3.52 µM; in the assay with OVCAR-5 ovarian, 6.72 µM; with PC-3 prostate, greater than 100 µM; in the assay on EKVX NSCLC it was greater than 100 µM; with UACC-257 melanoma, 4.4 µM.
On to `COc1cc2c(cc1OC)-c1c(c3ccc([N+](=O)[O-])cc3c(=O)n1CCCN=[N+]=[N-])C2=O`, for which the GI50 with ACHN renal is 19.4 µM; with SW-620 colon, 99.8 µM; in the assay on OVCAR-5 ovarian it was greater than 100 µM; with EKVX NSCLC, greater than 100 µM; with NCI-H23 lung, 40.5 µM; with MDA-MB-231 breast, greater than 100 µM. Moreover, the figures for the GI50 with CAKI-1 renal and in the assay with UACC-257 melanoma were 26.3 µM and greater than 100 µM, respectively. Further, the TGI in the assay with ACHN renal, with SW-620 colon, in the assay with OVCAR-5 ovarian, in the assay on EKVX NSCLC, in the assay on NCI-H23 lung and in the assay with MDA-MB-231 breast was greater than 100 µM in each case. The values for the TGI in the assay on CAKI-1 renal and in the assay with UACC-257 melanoma were 70.7 µM and greater than 100 µM, respectively.
Turning to `CC(Oc1ccc2c(=O)cc(-c3ccccc3)oc2c1)C(=O)O` (configuration not stated), the TGI in the assay on ACHN renal, in the assay with SW-620 colon, in the assay with EKVX NSCLC, in the assay on NCI-H23 lung, with CAKI-1 renal and with UACC-257 melanoma was greater than 100 µM each time.
As to `O=c1oc2c(O)c(O)cc3c(=O)oc4c(O)c(O)cc1c4c23`, the TGI with ACHN renal, in the assay with SW-620 colon, in the assay with OVCAR-5 ovarian, in the assay with RPMI-8226 leukemia, with EKVX NSCLC and in the assay on NCI-H23 lung was greater than 100 µM each time. Also, the results for the TGI in the assay with CAKI-1 renal and in the assay on UACC-257 melanoma were 29.5 µM and greater than 100 µM, respectively. Besides, the GI50 with SW-620 colon, with OVCAR-5 ovarian, with RPMI-8226 leukemia and in the assay with UACC-257 melanoma was greater than 100 µM in each case.
`CC(O)(c1ccc(OCCC[N+](C)(C)C)cc1)C(C)(O)c1ccc(OCCC[N+](C)(C)C)cc1` (configuration not stated): the TGI in the assay with ACHN renal, in the assay on SW-620 colon, with OVCAR-5 ovarian, in the assay on EKVX NSCLC, in the assay on NCI-H23 lung and with CAKI-1 renal was greater than 100 µM each time. The TGI with UACC-257 melanoma was greater than 100 µM.
For the molecule `CC1=C(C(=O)Nc2ccccc2C)C(c2ccccc2O)C(C(=O)Nc2ccccc2C)=C(C)N1`, the TGI in the assay with ACHN renal was 47.9 µM; with SW-620 colon, greater than 100 µM; in the assay on OVCAR-5 ovarian it was 82.2 µM; in the assay with RPMI-8226 leukemia it was 66.8 µM; with EKVX NSCLC it was greater than 100 µM; in the assay on NCI-H23 lung, greater than 100 µM. The TGI is greater than 100 µM in the assay with CAKI-1 renal and 49.4 µM in the assay on UACC-257 melanoma.
Take `CSC(=NC(=O)c1ccccc1)SCCSC(=NC(=O)c1ccccc1)SC`: the TGI in the assay with ACHN renal, with SW-620 colon, with OVCAR-5 ovarian, in the assay on RPMI-8226 leukemia, in the assay with EKVX NSCLC and in the assay on NCI-H23 lung was greater than 100 µM throughout. The TGI in the assay on CAKI-1 renal and in the assay on UACC-257 melanoma was greater than 100 µM each time.
